Values quoted from earlier work as cited in PMC9387934, “Randomized single oral dose phase 1 study of safety, tolerability, and pharmacokinetics of Iminosugar UV-4 Hydrochloride (UV-4B) in healthy subjects” (PLoS Neglected Tropical Diseases, 2022).

Columns and labels:
[1] = doses of 100 mg TID or less; cited from earlier work
[2] = parameters: method as in FDA Advisory Briefing Book for Miglustat; conditions: humans, doses of up to 1000 mg TID; ref FDA Advisory Briefing Book for Miglustat; cited from earlier work
[3] = parameters: method as in Zavesca SmPC; conditions: ref Zavesca SmPC; cited from earlier work
[4] = dogs, 105 mg/kg/day given over 4 weeks; cited from earlier work
[5] = healthy male subjects; cited from earlier work
[6] = 1108 patients, average of 6 months; cited from earlier work
[7] = 212 obese patients treated for 36 months; cited from earlier work
[8] = 300 mg BID; grade 3 transaminase, CK, and LDH elevations; cited from earlier work

CCCCN1C[C@H](O)[C@@H](O)[C@H](O)[C@H]1CO [miglustat, N-butyl-Deoxynojirimycin]
Association with AST and ALT elevations [1]: does not appear to be associated | Histamine-like findings as seen in rats [2]: no similar findings | NOAEL [3]: 20 mg/kg | Neurologic findings [4]: tremor and reduction or absence of corneal reflexes | AST elevations [5]: no AST elevations

C[C@H]1O[C@H](O[C@H]2[C@H](O)[C@@H](O)[C@@H](O[C@H]3[C@H](O)[C@@H](O)C(O)O[C@@H]3CO)O[C@@H]2CO)[C@H](O)[C@@H](O)[C@@H]1N[C@H]1C=C(CO)[C@@H](O)[C@H](O)[C@H]1O (some centres unmarked) [acarbose]
Rates of ALT elevations versus placebo [6]: no different | ALT elevations, share of patients [7]: 9%

CCCC(=O)O[C@H]1CN2CC[C@H](O)[C@@H]2[C@@H](O)[C@@H]1O [Celgosivir]
Outcome of safety and tolerability study [8]: prematurely discontinued
